This note sets out measurements from US10183021B2, “sGC stimulators” (Ironwood Pharmaceuticals, Inc., priority 2013, dated 2019).

Some results are limits rather than exact numbers.

For orientation: EC50 means the concentration giving half of the maximal effect.

The target in the assay is soluble guanylate cyclase (sGC) (Homo sapiens (Human), UniProt Q02108+Q02153). The assay can be described thus: sGC-HEK-cGMP assay, new protocol with DETA-NONOate, LC/MS detection (Example 2C). In kind it is cell-based. Conditions: read-out: Absolute EC50 (uM) - binned.
Sequence of soluble guanylate cyclase (sGC) (Q02153 whole entry): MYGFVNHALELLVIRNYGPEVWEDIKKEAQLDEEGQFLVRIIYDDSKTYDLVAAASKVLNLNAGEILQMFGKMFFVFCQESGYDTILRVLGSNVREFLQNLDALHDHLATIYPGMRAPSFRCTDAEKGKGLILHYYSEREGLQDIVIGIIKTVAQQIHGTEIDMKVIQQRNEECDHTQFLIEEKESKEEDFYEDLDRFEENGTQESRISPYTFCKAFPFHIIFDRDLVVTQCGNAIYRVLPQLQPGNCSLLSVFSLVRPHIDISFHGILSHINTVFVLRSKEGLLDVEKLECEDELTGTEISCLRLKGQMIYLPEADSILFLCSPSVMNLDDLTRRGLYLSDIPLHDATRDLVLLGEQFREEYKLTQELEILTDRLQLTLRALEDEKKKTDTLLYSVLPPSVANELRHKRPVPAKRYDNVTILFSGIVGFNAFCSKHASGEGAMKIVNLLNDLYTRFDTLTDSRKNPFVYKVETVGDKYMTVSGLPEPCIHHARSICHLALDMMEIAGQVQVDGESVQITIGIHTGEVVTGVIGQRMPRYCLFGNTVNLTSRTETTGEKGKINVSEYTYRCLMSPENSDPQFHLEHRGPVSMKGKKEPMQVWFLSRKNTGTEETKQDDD
Sequence of soluble guanylate cyclase (sGC) (Q02108 whole entry): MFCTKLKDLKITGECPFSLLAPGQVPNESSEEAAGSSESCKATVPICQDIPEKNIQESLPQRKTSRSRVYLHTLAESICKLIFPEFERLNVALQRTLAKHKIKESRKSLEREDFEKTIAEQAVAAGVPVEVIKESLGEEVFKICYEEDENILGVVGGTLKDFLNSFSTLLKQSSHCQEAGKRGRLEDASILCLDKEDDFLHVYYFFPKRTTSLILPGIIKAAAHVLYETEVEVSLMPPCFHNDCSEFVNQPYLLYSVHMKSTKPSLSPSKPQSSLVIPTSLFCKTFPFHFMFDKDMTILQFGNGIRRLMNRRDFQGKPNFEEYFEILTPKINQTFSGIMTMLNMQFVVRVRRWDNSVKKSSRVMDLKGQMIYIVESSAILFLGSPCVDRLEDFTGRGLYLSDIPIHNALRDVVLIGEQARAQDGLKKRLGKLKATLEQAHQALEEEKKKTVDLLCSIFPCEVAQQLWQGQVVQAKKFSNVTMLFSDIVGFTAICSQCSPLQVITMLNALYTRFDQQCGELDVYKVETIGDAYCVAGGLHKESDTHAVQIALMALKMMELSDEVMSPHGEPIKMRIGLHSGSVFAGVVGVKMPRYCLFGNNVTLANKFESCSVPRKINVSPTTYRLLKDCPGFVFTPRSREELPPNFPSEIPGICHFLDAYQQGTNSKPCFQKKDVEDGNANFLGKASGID
As for `O=C(Nc1ccnc(-c2cc(-c3ccon3)n(Cc3ccccc3F)n2)n1)c1ccco1` [Compound I-560], the EC50 was more than 1 µM.
For `O=C(Nc1ccnc(-c2cc(-c3ccon3)n(Cc3ccccc3F)n2)n1)c1cccs1` [Compound I-561], the EC50 is more than 1 µM.
Take `CCOCC(=O)Nc1ccnc(-c2cc(-c3ccon3)n(Cc3ccccc3F)n2)n1` [Compound I-562]: the EC50 lay in the range of 0.101 to 1 µM.
Consider `CS(=O)(=O)CC(=O)Nc1ccnc(-c2cc(-c3ccon3)n(Cc3ccccc3F)n2)n1` [Compound I-563], for which the EC50 is more than 1 µM.
Consider `O=C(Nc1ccnc(-c2cc(-c3ccon3)n(Cc3ccccc3F)n2)n1)c1cc(C2CC2)n[nH]1` [Compound I-564], for which the EC50 is more than 1 µM.
The result for `CC(=O)OC(C(=O)Nc1ccnc(-c2cc(-c3ccon3)n(Cc3ccccc3F)n2)n1)c1ccccc1` (stereo not drawn) [Compound I-565] reads 0.101 to 1 µM; that for `O=C(CO)N(CC(F)(F)F)c1nc(-c2cc(-c3ccon3)n(Cc3ccccc3F)n2)ncc1F` [Compound I-566], 0.101 to 1 µM.
In the case of `Fc1ccccc1Cn1nc(-c2ncc(F)c(NCC3(c4ncc[nH]4)CC3)n2)cc1-c1ccon1` [Compound I-567], the EC50 was more than 1 µM.
The result for `COC(=O)NCC(Nc1nc(-c2cc(-c3ccon3)n(Cc3ccccc3F)n2)ncc1F)C(F)(F)F` (stereo not drawn) [Compound I-568] reads less than 0.1 µM.
Consider `CC1(C(=O)Nc2ccnc(-c3cc(-c4ccon4)n(Cc4ccccc4F)n3)n2)CC1` [Compound I-569], for which the EC50 was more than 1 µM.
As for `O=C(Nc1ccnc(-c2cc(-c3ccon3)n(Cc3ccccc3F)n2)n1)C1CCCO1` (stereo not drawn) [Compound I-570], the EC50 is 0.101 to 1 µM.
With `Cc1cn(CC(=O)Nc2ccnc(-c3cc(-c4ccon4)n(Cc4ccccc4F)n3)n2)c(=O)[nH]c1=O` [Compound I-571], the 50% effective concentration (EC50) was more than 1 µM.
For the compound `COC(C(=O)Nc1ccnc(-c2cc(-c3ccon3)n(Cc3ccccc3F)n2)n1)(c1ccccc1)C(F)(F)F` (stereo not drawn) [Compound I-572], the concentration for a half-maximal effect (EC50) is more than 1 µM.
Regarding `CS(=O)(=O)CCC(=O)Nc1ccnc(-c2cc(-c3ccon3)n(Cc3ccccc3F)n2)n1` [Compound I-573], the EC50 fell in the range of 0.101 to 1 µM.
For `O=C(Nc1ccnc(-c2cc(-c3ccon3)n(Cc3ccccc3F)n2)n1)C1CCOCC1` [Compound I-574] the value was 0.101 to 1 µM.
The result for `O=C1O[C@@H](CO)CN1c1nc(-c2cc(-c3ccon3)n(Cc3ccccc3F)n2)ncc1F` [Compound I-575] reads less than 0.1 µM; that for `C[C@H](O)C(=O)Nc1ccnc(-c2cc(-c3ccon3)n(Cc3ccccc3F)n2)n1` [Compound I-576], 0.101 to 1 µM; that for `O=C(Nc1ccnc(-c2cc(-c3ccon3)n(Cc3ccccc3F)n2)n1)c1ccccc1O` [Compound I-577], 0.101 to 1 µM.
The result for `Fc1ccccc1Cn1nc(-c2ncc(F)c(NC3CCOC3)n2)cc1-c1ccon1` (stereo not drawn) [Compound I-578] reads less than 0.1 µM; that for `N#CCC(=O)Nc1ccnc(-c2cc(-c3ccon3)n(Cc3ccccc3F)n2)n1` [Compound I-579], more than 1 µM.
As to `CC(C)(C(=O)Nc1ccnc(-c2cc(-c3ccon3)n(Cc3ccccc3F)n2)n1)S(C)(=O)=O` [Compound I-580], the EC50 fell in the range of 0.101 to 1 µM.
Take `NC(=O)CCNc1nc(-c2cc(-c3ccon3)n(Cc3ccccc3F)n2)ncc1F` [Compound I-581]: the EC50 was less than 0.1 µM.
For `CC(C)(C(=O)Nc1nc(-c2cc(-c3ccon3)n(Cc3ccccc3F)n2)ncc1F)S(C)(=O)=O` [Compound I-582], the EC50 was more than 1 µM.
For `O=C(Nc1ccccc1)Nc1ccnc(-c2cc(-c3ccon3)n(Cc3ccccc3F)n2)n1` [Compound I-583] the value was more than 1 µM.
The result for `NC(=O)NCC(=O)Nc1ccnc(-c2cc(-c3ccon3)n(Cc3ccccc3F)n2)n1` [Compound I-584] reads more than 1 µM.
The result for `CC(C)NC(=O)NCC(=O)Nc1ccnc(-c2cc(-c3ccon3)n(Cc3ccccc3F)n2)n1` [Compound I-585] reads 0.101 to 1 µM; that for `CN(C)S(=O)(=O)NCC(=O)Nc1ccnc(-c2cc(-c3ccon3)n(Cc3ccccc3F)n2)n1` [Compound I-586], 0.101 to 1 µM; that for `CC(C(=O)Nc1ccnc(-c2cc(-c3ccon3)n(Cc3ccccc3F)n2)n1)S(C)(=O)=O` (stereo not drawn) [Compound I-587], 0.101 to 1 µM.
With `CS(=O)(=O)CCC(Nc1nc(-c2cc(-c3ccon3)n(Cc3ccccc3F)n2)ncc1F)C(F)(F)F` (stereo not drawn) [Compound I-588], the EC50 was 0.101 to 1 µM.
For `CC(C(=O)Nc1nc(-c2cc(-c3ccon3)n(Cc3ccccc3F)n2)ncc1F)S(C)(=O)=O` (stereo not drawn) [Compound I-589] the value was 0.101 to 1 µM; for `NC(=O)C1CC(=O)N(c2nc(-c3cc(-c4ccon4)n(Cc4ccccc4F)n3)ncc2F)C1` (stereo not drawn) [Compound I-590], more than 1 µM; for `CCOC(=O)C1(C)CCN(c2nc(-c3cc(-c4ccon4)n(Cc4ccccc4F)n3)ncc2F)C1=O` (stereo not drawn) [Compound I-591], 0.101 to 1 µM.
As to `O=C(CS(=O)(=O)c1ccccc1)Nc1ccnc(-c2cc(-c3ccon3)n(Cc3ccccc3F)n2)n1` [Compound I-592], the EC50 was more than 1 µM.
Turning to `O=C(CS(=O)(=O)c1ccc(Cl)cc1)Nc1ccnc(-c2cc(-c3ccon3)n(Cc3ccccc3F)n2)n1` [Compound I-593], the EC50 was more than 1 µM.
The result for `CC1(C(=O)Nc2ccnc(-c3cc(-c4ccon4)n(Cc4ccccc4F)n3)n2)Cc2ccccc2S1(=O)=O` (stereo not drawn) [Compound I-594] reads more than 1 µM; that for `O=S(=O)(CCC(F)(F)F)Nc1cnc(-c2cc(-c3ccon3)n(Cc3ccccc3F)n2)nc1` [Compound I-595], 0.101 to 1 µM; that for `O=C(CN1C(=O)c2ccccc2C1=O)Nc1ccnc(-c2cc(-c3ccon3)n(Cc3ccccc3F)n2)n1` [Compound I-596], more than 1 µM.
In the case of `O=C(Cc1ccccc1)NCC(=O)Nc1ccnc(-c2cc(-c3ccon3)n(Cc3ccccc3F)n2)n1` [Compound I-597], the EC50 is more than 1 µM.
On to `O=C(CNC(=O)OCc1ccccc1)Nc1ccnc(-c2cc(-c3ccon3)n(Cc3ccccc3F)n2)n1` [Compound I-598], for which the EC50 is more than 1 µM.
For the compound `O=C(CN1Cc2ccccc2C1=O)Nc1ccnc(-c2cc(-c3ccon3)n(Cc3ccccc3F)n2)n1` [Compound I-599], the EC50 was more than 1 µM.
The result for `O=C(CN1CCOC1=O)Nc1ccnc(-c2cc(-c3ccon3)n(Cc3ccccc3F)n2)n1` [Compound I-600] reads 0.101 to 1 µM; that for `O=C(Cn1cnc2ccccc2c1=O)Nc1ccnc(-c2cc(-c3ccon3)n(Cc3ccccc3F)n2)n1` [Compound I-601], more than 1 µM; that for `O=C(CN1C(=O)c2ccccc2C1=O)NCC(=O)Nc1ccnc(-c2cc(-c3ccon3)n(Cc3ccccc3F)n2)n1` [Compound I-602], more than 1 µM.
With `COC(=O)NCC(=O)Nc1ccnc(-c2cc(-c3ccon3)n(Cc3ccccc3F)n2)n1` [Compound I-603], the EC50 was 0.101 to 1 µM.
The result for `CC1(C(=O)O)CCN(c2nc(-c3cc(-c4ccon4)n(Cc4ccccc4F)n3)ncc2F)C1=O` (stereo not drawn) [Compound I-604] reads 0.101 to 1 µM; that for `CC1(C(=O)NC2CC2)CCN(c2nc(-c3cc(-c4ccon4)n(Cc4ccccc4F)n3)ncc2F)C1=O` (stereo not drawn) [Compound I-605], 0.101 to 1 µM.
The result for `CC1(C(N)=O)CCN(c2nc(-c3cc(-c4ccon4)n(Cc4ccccc4F)n3)ncc2F)C1=O` (stereo not drawn) [Compound I-606] reads 0.101 to 1 µM.
Turning to `O=S(=O)(Cc1ccc(F)cc1)Nc1nc(-c2cc(-c3ccon3)n(Cc3ccccc3F)n2)ncc1F` [Compound I-607], the EC50 lay in the range of 0.101 to 1 µM.
The result for `Fc1ccccc1Cn1nc(-c2ncc(F)c(NCc3nnc(C(F)(F)F)o3)n2)cc1-c1ccon1` [Compound I-608] reads less than 0.1 µM.
The result for `O=S(=O)(CC(F)(F)F)Nc1nc(-c2cc(-c3ccon3)n(Cc3ccccc3F)n2)ncc1F` [Compound I-609] reads more than 1 µM.
For `O=S(=O)(Nc1nc(-c2cc(-c3ccon3)n(Cc3ccccc3F)n2)ncc1F)C1CC1` [Compound I-610] the value was 0.101 to 1 µM; for `CCCS(=O)(=O)Nc1nc(-c2cc(-c3ccon3)n(Cc3ccccc3F)n2)ncc1F` [Compound I-611], 0.101 to 1 µM; for `O=C1CCS(=O)(=O)N1c1nc(-c2cc(-c3ccon3)n(Cc3ccccc3F)n2)ncc1F` [Compound I-612], less than 0.1 µM.
As for `O=S(=O)(Nc1nc(-c2cc(-c3ccon3)n(Cc3ccccc3F)n2)ncc1F)c1ccccc1` [Compound I-613], the EC50 is 0.101 to 1 µM.
For `COc1ccc(S(=O)(=O)Nc2nc(-c3cc(-c4ccon4)n(Cc4ccccc4F)n3)ncc2F)cc1OC` [Compound I-614] the value was 0.101 to 1 µM; for `O=C1C(O)CCN1c1nc(-c2cc(-c3ccon3)n(Cc3ccccc3F)n2)ncc1F` (stereo not drawn) [Compound I-615], more than 1 µM.
With `CS(=O)(=O)CC(=O)Nc1nc(-c2cc(-c3ccon3)n(Cc3ccccc3F)n2)ncc1F` [Compound I-616], the EC50 is 0.101 to 1 µM.
The result for `CCOC(=O)C1(C)C(=O)Nc2cnc(-c3cc(-c4ccon4)n(Cc4ccccc4F)n3)nc21` (stereo not drawn) [Compound I-617] reads more than 1 µM; that for `CCOC(=O)C1(C)C(=O)Nc2nc(-c3cc(-c4ccon4)n(CCC(F)(F)F)n3)nc(N)c21` (stereo not drawn) [Compound I-618], more than 1 µM.
For the compound `CC1(C(N)=O)C(=O)Nc2nc(-c3cc(-c4ccon4)n(CCC(F)(F)F)n3)nc(N)c21` (stereo not drawn) [Compound I-619], the EC50 was more than 1 µM.
For `COC(=O)Nc1c(N)nc(-c2cc(-c3ccon3)n(Cc3ccccc3F)n2)nc1N` [Compound I-620] the value was more than 1 µM; for `COC(=O)N(C)c1c(N)nc(-c2cc(-c3ccon3)n(Cc3ccccc3F)n2)nc1N` [Compound I-621], more than 1 µM; for `C[C@@H](Nc1nc(-c2cc(-c3ccon3)n(Cc3ccccc3F)n2)ncc1F)c1nnc(C(F)(F)F)o1` [Compound I-622], less than 0.1 µM.
As for `CC(=O)NNC(=O)C1(C)C(=O)Nc2nc(-c3cc(-c4ccon4)n(Cc4ccccc4F)n3)nc(N)c21` (stereo not drawn) [Compound I-623], the EC50 is more than 1 µM.
The result for `O=S(=O)(Nc1nc(-c2cc(-c3ccon3)n(Cc3ccccc3F)n2)ncc1F)c1ccc(F)cc1` [Compound I-624] reads 0.101 to 1 µM; that for `O=S(=O)(Nc1nc(-c2cc(-c3ccon3)n(Cc3ccccc3F)n2)ncc1F)c1cccnc1` [Compound I-625], more than 1 µM.
